Assay [1] addresses Disintegrin and metalloproteinase domain-containing protein 10 (Homo sapiens, UniProt O14672). Put plainly: Inhibition of ADAM10.
Assay [2] deals with Disintegrin and metalloproteinase domain-containing protein 17 (Homo sapiens, UniProt P78536).
The target in assay [3] is Disintegrin and metalloproteinase domain-containing protein 9 (Homo sapiens, UniProt Q13443). Put plainly: Inhibition of ADAM9.

Square brackets hold non-standard residues; d marks the D form. Peptide text beside a SMILES is read from it. Hmp(2R,3S) = CC[C@H](C)[C@@H](O)C(=O)O; Sta = CC(C)C[C@H](N)[C@@H](O)CC(=O)O; dNMeF = CN[C@H](Cc1ccccc1)C(=O)O; NMeQ = CN[C@@H](CCC(N)=O)C(=O)O

Disintegrin and metalloproteinase domain-containing protein 10, sequence (O14672 whole entry, the tested form may be a part): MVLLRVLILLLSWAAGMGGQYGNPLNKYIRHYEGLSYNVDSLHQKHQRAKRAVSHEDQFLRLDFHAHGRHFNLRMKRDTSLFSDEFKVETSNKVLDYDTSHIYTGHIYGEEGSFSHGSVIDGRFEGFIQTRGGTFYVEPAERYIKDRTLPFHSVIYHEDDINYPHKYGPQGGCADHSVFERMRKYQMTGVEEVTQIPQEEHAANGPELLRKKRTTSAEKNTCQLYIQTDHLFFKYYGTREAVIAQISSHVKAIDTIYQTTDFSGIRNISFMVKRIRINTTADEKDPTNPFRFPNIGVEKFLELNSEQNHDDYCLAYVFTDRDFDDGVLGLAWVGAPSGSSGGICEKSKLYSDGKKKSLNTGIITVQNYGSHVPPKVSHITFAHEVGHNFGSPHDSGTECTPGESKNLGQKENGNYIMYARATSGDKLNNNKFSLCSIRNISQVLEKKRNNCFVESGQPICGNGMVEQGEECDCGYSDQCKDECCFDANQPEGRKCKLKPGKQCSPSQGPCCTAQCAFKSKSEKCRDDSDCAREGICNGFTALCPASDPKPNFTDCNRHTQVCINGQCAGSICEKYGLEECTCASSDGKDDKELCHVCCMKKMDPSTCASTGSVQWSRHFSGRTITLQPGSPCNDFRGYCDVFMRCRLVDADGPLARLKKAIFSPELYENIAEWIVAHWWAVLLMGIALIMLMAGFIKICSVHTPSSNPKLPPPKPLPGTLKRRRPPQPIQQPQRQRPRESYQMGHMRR
Disintegrin and metalloproteinase domain-containing protein 9, sequence (Q13443 whole entry, the tested form may be a part): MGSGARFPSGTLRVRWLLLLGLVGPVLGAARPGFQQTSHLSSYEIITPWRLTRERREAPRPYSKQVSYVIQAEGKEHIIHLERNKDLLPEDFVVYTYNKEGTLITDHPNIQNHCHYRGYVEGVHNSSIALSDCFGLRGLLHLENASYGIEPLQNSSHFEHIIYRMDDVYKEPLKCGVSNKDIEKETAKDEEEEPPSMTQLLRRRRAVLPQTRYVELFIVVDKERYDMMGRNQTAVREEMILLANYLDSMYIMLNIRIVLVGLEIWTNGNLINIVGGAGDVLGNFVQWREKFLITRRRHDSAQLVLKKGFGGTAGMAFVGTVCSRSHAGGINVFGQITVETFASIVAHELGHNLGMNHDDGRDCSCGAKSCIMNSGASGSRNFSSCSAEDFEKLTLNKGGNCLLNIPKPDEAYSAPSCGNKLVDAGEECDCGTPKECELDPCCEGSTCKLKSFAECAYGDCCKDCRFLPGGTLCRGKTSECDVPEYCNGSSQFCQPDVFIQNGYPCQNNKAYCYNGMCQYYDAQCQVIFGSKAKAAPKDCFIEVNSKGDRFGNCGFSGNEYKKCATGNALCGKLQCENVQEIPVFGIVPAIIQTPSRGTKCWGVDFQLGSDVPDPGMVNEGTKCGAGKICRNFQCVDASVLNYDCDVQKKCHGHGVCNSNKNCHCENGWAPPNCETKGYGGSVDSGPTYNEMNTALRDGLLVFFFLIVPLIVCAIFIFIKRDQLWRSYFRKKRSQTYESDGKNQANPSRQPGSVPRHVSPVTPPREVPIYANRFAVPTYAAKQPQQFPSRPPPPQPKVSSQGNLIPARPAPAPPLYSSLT
Disintegrin and metalloproteinase domain-containing protein 17, sequence (P78536 whole entry, the tested form may be a part): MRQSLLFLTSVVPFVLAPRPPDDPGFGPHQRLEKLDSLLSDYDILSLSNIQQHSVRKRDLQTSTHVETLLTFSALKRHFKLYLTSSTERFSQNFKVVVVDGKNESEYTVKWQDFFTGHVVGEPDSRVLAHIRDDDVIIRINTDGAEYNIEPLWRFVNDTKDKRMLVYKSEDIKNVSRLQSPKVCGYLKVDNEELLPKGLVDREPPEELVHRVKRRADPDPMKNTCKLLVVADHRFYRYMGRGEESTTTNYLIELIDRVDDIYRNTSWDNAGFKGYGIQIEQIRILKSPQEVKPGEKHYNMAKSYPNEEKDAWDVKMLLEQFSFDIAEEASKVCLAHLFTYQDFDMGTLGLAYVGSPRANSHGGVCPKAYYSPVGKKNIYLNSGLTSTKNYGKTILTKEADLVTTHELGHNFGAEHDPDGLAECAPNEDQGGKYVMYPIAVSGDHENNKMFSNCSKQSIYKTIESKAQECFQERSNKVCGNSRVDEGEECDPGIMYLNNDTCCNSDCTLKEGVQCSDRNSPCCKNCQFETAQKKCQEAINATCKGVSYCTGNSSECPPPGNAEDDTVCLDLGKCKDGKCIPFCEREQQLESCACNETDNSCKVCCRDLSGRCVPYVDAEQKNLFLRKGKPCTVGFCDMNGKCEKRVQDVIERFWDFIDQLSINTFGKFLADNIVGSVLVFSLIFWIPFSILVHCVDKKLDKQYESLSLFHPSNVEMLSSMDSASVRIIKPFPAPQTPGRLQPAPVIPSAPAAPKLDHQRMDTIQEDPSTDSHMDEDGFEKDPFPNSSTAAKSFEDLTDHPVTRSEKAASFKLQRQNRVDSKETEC

What is called IC50 is the concentration that inhibits the measured activity by half. For `CNC(=O)[C@H](Cc1c[nH]c2ccccc12)NC(=O)[C@@H](CC(=O)NO)CC(C)C` [ILOMASTAT], the IC50 stood at 263 nM in assay [1], 13.1 nM in assay [2] and 56.3 nM in assay [3].

On to `CC[C@H](C)[C@H](NC(=O)C[C@H](O)[C@H](CC(C)C)NC(=O)[C@H](CCC(N)=O)N(C)C(=O)[C@H](CC(C)C)NC(=O)[C@H](O)[C@@H](C)CC)C(=O)NCC(=O)N(C)[C@H](Cc1ccccc1)C(=O)N1CCC[C@H]1C(=O)OC` [GRASSYSTATIN C] ({Hmp(2R,3S)}-L[NMeQ][Sta]IG[dNMeF]P-OMe), for which the IC50 in assay [1] and in assay [3] was more than 100000 nM each time.

The record behind these values is ChEMBL document CHEMBL1156023, “Grassystatins A-C from marine cyanobacteria, potent cathepsin E inhibitors that reduce antigen presentation” (J Med Chem, 2009).
